Assays:
[1] = test system: rats subjected to chronic restraint stress; experiment: Sucrose preference test (SPT) after chronic restraint stress (CRS); type: in vivo, rat; conditions: MRK-016 3 mg/kg
Excerpt: (§1) MRK-016 rapidly reverses loss of sucrose preference and social interaction behaviors after chronic restraint stress (FIG. 9). […] This persisted for 7 days despite further stress exposure. and in the same animals after an additional week of CRS and 7 days after the injection of MRK-016.
(§2) Chronic restraint stress (CRS). Male Sprague Dawley rats (4-5 weeks-old; Harlan Laboratories) were placed in appropriately sized restraint tubes, highly restricting their movement for periods of four hours in a brightly lit lab, every day for ten days during the light phase of their diurnal cycle (Lim et al., 2012).
Sucrose preference test (SPT). Rats were given a choice between two bottles containing tap water or a 1% sucrose solution (Rygula et al., 2006). Testing was conducted overnight (16 hours), including the full duration of their dark phase. Animals were first trained with both bottles while group-housed. For subsequent tests, including during the baseline period, animals were individually housed. Sucrose preference was calculated as amount of the sucrose solution consumed as a percentage of the total amount of liquid consumed.
Drugs/stats. L-655,708 was purchased from Tocris Bioscience (R&D Systems, Minneapolis, Minn.) and prepared at a concentration of 5 mM in 75% saline/25% DMSO. […] This dose is sufficient to occupy about 70% of forebrain binding sites (Atack et al., 2005)
Several hedonic behaviors in rodents are sensitive to chronic stress and are restored by chronic, but not acute, administration of SSRIs, providing one means to screen for potential antidepressant compounds. First, it was determined whether L-655,708 would rapidly (<24 hrs) restore normal hedonic behavior following chronic restraint stress (Watanabe et al., 1992; Lim et al., 2012), consistent with the rapid antidepressant-like actions of ketamine (Li et al., 2011). Baseline measurements were first made of social interaction and sucrose preference, and then 4-5 week old rats were subjected to ten days of CRS. […]

[2] = test system: rats subjected to chronic restraint stress; experiment: Social interaction test (SIT) after chronic restraint stress (CRS); type: in vivo, rat; conditions: MRK-016 3 mg/kg
Excerpt: as §1, §2
Social interaction test (SIT). As described previously (Berton et al., 2006), rats were placed in a plastic enclosure (82×82 cm) with a 5×5 grid of squares (16.4×16.4 cm) visible underneath the clear plastic flooring. A small translucent perforated plastic box (20×16 cm) was placed against the center of one wall of the arena. During the testing conditions white overhead fluorescent lighting was used to illuminate the arena. A video camera positioned 170 cm above the floor of the arena was used to track the movements of the rats during the experiment.
Each test consisted of a “target-absent” trial followed by a “target-present” trial. During testing, an individual test rat was placed in the center of the arena and, after 30s of adaptation, the rat's movements were recorded with the video camera for 2.5 minutes. […]
Results were quantified as the percentage of time spent in the “interaction zone” (the five grid squares immediately surrounding the plastic cage) as measured for both the “target-absent” and “target-present” trials. […]
Several hedonic behaviors in rodents are sensitive to chronic stress and are restored by chronic, but not acute, administration of SSRIs, providing one means to screen for potential antidepressant compounds. First, it was determined whether L-655,708 would rapidly (<24 hrs) restore normal hedonic behavior following chronic restraint stress (Watanabe et al., 1992; Lim et al., 2012), consistent with the rapid antidepressant-like actions of ketamine (Li et al., 2011). […]

[3] = test system: TA-CA1 synapses; experiment: Anpirtoline (5-HT1BR agonist) potentiation of TA-CA1 EPSP slope in hippocampal slices; set-up: species or system rat; conditions: slices after CUS
Method: Experiment B. Do alpha5 GABA-NAMs restore 5-HT1BR-mediated potentiation? One can consider whether alpha5 GABA-NAMs reverse another phenotypic alteration of stressed TA-CA 1 synapses: amplification and persistence of responses to the 5-HT1BR agonist anpirtoline (FIG. 3A) (Cai et al., 2013). Slices are prepared from the four groups described in Experiment A. Anpirtoline (501.1M) is bath applied for 60 min, followed by a 90 min washout period. In specific embodiments, anpirtoline potentiation of […], vehicle-injected controls and that injection of alpha5 GABA-NAM […], but has no effect in control rats (see FIG. 3B).

[4] = test system: depressive symptoms in humans; conditions: acute administration; cited from earlier work
[5] = test system: chronically stressed animals; conditions: Li et al., 2011; cited from earlier work

**Q.** For `Cc1cc(-c2nncc3c(C(C)(C)C)c(OCc4ncnn4C)nn23)no1` [MRK-016, 3-tert-Butyl-7-(5-methylisooxazol-3-yl)-2-(1-methyl-1H-1,2,4-triazol-5-ylmethoxy)-pyrazolo[1,5-d]-[1,2,4] triazine], which “persistence of effect on sucrose preference” value ([1]; CRS continued) is on record?
**A.** 7 days

**Q.** What about the sucrose preference ([1]; CRS, 24 hours after treatment, vs baseline) of the same compound?
**A.** not significantly different than the baseline before stress exposure

**Q.** What about the social interaction scores ([2]; CRS, 24 hours after treatment, vs pre-stress) of the same compound?
**A.** not significantly different than the pre-stress condition

**Q.** And the “persistence of effect on social interaction” value ([2]; despite further stress exposure)?
**A.** 7 days

**Q.** With `Clc1cccc(SC2CCNCC2)n1` [anpirtoline] as the compound, how does the “persistence of potentiation after washout” value [3] read?
**A.** > 60 min

**Q.** And the “potentiation of TA-CA1 EPSP slope” value ([3]; vs control slices)?
**A.** larger

**Q.** Which results are given for `CNC1(c2ccccc2Cl)CCCCC1=O` (stereo not drawn) [ketamine]?
**A.** persistence of antidepressant effects [4]: up to two weeks; time to improved mood and reduced depressive symptoms [4]: 1 to 2 h; time to restoration of sucrose preference and novelty suppressed feeding behaviors [5]: 24 h

Reference: US11083732B2, “Use of negative modulators of GABA receptors containing alpha5 subunits as fast acting antidepressants” (University of Maryland, Baltimore, priority 2014, dated 2021)
